According to patent US20230416248A1, “COMPOUNDS AND USES THEREOF” (Foghorn Therapeutics Inc., priority 2020, published 2023):
pIC50: −log10 of the molar value. Like-named read-outs stand apart in the source and are kept apart here.

Key:
[1] = target: T1, BRM (Homo sapiens, UniProt P51531); assay: ATPase catalytic activity of BRM, ADP-Glo in vitro biochemical assay; conditions: for pIC50: 30 nM BRM, 400 μM ATP; for Ratio* (BRG1 IC50 (μM) divided by BRM IC50 (μM)): selectivity ratio BRG1 IC50 / BRM IC50
T1 construct: made in house; host or cells: High Five insect cells
How it was run: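 ADP-Glo luminescence, after depletion of leftover ATP and conversion of ADP, reported the activity. The 1 h room-temperature reaction held 400 μM ATP, 20 nM salmon sperm DNA and 30 nM BRM in 20 mM Tris pH 8, 20 mM MgCl2, 50 mM NaCl, 0.1% Tween-20, 1 mM DTT.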

[2] = target: T2, BRG-1 (Homo sapiens, UniProt P51532); assay: ATPase catalytic activity of BRG-1, ADP-Glo in vitro biochemical assay; conditions: 30 nM BRG-1, 400 μM ATP, read-out: BRG1 IC50
T2 construct: made in house; host or cells: High Five insect cells
How it was run: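 In this in vitro format, BRG-1 hydrolysis product ADP is detected via a two-step ADP-Glo workup (ATP removal, then ADP-to-ATP conversion with luciferase detection) followed by a luminescence read.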

[3] = ATPase catalytic activity, ADP-Glo

T1 sequence (P51531 whole entry): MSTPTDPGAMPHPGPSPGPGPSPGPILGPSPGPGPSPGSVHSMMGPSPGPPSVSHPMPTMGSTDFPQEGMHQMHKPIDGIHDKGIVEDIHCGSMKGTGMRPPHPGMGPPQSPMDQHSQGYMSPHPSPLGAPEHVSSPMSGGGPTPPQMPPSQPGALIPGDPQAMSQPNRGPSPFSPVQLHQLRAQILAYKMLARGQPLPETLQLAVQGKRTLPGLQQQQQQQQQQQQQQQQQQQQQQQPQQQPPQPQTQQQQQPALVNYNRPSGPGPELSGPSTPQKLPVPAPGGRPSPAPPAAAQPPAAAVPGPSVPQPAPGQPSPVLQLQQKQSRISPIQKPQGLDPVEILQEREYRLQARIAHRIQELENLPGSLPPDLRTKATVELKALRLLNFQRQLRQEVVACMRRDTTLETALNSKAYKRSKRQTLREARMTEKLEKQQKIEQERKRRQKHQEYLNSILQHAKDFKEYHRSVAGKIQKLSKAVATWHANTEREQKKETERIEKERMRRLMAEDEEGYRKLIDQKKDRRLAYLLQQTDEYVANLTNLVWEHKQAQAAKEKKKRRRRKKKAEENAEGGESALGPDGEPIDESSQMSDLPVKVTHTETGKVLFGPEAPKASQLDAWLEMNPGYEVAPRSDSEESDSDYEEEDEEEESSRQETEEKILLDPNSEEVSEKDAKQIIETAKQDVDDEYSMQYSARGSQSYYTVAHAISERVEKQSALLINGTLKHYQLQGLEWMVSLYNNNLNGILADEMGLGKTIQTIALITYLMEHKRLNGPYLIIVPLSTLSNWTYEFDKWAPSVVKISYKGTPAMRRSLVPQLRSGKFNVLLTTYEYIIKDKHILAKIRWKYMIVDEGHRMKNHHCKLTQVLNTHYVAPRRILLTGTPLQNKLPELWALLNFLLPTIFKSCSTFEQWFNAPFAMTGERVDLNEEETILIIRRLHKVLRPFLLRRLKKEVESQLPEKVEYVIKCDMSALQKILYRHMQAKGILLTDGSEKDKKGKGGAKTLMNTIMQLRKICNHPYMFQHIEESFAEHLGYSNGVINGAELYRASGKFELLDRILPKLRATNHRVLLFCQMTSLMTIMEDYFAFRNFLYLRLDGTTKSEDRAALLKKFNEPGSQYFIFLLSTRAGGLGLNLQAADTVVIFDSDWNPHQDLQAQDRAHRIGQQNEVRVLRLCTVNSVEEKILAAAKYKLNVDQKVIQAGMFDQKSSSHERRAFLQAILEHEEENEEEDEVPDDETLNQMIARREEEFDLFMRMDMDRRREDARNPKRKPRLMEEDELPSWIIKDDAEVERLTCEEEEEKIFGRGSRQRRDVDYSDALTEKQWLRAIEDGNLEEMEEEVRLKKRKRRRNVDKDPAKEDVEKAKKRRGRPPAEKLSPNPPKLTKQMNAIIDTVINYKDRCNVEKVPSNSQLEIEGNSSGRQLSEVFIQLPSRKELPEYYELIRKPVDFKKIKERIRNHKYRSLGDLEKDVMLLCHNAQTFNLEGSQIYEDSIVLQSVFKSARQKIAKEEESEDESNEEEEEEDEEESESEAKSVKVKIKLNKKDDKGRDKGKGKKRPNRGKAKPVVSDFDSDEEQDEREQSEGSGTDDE
T2 sequence (P51532 whole entry): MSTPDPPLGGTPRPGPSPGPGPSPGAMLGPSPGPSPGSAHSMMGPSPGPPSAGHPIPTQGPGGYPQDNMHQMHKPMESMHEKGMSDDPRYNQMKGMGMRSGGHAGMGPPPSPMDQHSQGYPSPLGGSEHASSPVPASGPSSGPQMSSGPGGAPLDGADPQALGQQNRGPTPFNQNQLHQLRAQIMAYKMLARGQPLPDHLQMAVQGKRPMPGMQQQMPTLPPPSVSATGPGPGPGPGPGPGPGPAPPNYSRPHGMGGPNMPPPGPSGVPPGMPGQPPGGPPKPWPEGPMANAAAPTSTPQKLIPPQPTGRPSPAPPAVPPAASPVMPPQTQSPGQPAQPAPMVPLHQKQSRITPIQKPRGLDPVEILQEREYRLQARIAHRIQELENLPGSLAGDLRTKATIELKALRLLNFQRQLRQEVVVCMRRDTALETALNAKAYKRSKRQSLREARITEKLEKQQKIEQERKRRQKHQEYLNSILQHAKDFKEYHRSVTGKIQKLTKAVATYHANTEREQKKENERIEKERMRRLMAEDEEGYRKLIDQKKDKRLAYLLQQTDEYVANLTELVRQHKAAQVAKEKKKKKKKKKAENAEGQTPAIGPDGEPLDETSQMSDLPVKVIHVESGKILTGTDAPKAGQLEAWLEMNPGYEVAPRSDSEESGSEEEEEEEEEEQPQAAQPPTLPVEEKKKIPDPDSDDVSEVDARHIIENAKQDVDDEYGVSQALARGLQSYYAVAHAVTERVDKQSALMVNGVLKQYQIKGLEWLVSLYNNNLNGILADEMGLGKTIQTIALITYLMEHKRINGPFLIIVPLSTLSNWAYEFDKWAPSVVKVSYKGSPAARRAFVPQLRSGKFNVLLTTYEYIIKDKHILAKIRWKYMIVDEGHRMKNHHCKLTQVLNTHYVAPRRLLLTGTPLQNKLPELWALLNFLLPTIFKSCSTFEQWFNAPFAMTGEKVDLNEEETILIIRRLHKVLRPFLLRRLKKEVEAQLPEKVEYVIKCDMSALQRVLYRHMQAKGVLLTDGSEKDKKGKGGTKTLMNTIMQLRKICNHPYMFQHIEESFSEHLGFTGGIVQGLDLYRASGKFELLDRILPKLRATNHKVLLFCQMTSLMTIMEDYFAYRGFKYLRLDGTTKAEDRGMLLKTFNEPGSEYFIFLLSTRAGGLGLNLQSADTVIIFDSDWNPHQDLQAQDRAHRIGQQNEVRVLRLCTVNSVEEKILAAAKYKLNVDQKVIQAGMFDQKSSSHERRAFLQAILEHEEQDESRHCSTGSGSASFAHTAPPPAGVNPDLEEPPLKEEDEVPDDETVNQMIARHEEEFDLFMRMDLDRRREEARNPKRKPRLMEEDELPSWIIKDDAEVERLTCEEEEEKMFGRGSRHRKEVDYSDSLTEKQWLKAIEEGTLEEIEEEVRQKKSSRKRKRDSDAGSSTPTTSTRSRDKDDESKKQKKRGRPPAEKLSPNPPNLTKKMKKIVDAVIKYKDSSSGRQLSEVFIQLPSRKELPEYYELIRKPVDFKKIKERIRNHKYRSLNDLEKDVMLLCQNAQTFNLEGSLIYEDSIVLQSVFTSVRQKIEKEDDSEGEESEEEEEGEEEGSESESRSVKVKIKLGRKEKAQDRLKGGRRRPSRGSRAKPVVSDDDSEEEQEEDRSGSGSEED

Row | pIC50 [1, 3] | Ratio* ([1]; ratio of BRG1 IC50 to BRM IC50) | pIC50 [2, 3] | pIC50 ([1]; ADP-Glo ATPase assay) | Ratio* ([1]; ratio BRG1 IC50 / BRM IC50) | pIC50 ([2]; ADP-Glo ATPase assay) | Ratio* (BRG1 IC50 (μM) divided by BRM IC50 (μM)) [1] | Compound
1 | 7.85 | 29.57 | 6.38 | – | – | – | – | Cc1cc(C(=O)NCc2cc3nc(-c4cccc(N5C[C@@H](C)O[C@@H](C)C5)n4)ccc3cn2)cc2c1COCCS2(=O)=O [Compound 354]
2 | – | – | – | 7.34 | 14.46 | 6.18 | – | Cn1cc(-c2ccc3cnc(CNC(=O)c4ccc5c(c4)S(=O)(=O)CCOC5)cc3n2)c(OC(F)F)n1 [Compound 812]
3 | 8.28 | 12.09 | 7.19 | – | – | – | – | Cc1cnc2c(c1)OCCN2c1ccc2cnc(CNC(=O)c3cc(F)c4c(c3)S(=O)(=O)CCOC4)cc2n1 [Compound 550]
4 | 7.43 | 31.92 | 5.93 | – | – | – | – | O=C(NCc1cc2nc(N3CCOc4ccc(C(F)F)nc43)ccc2cn1)c1ccc2c(c1)S(=O)(=O)CCOC2 [Compound 594]
5 | 7.66 | 12.86 | 6.55 | – | – | – | – | COC[C@@H]1C[C@H]1N(C)c1cccc(-c2ccc3cnc(CNC(=O)c4ccc5c(c4)S(=O)(=O)CCOC5)cc3n2)n1 [Compound 311]
6 | 7.56 | 3.98 | 6.96 | – | – | – | – | COC[C@H]1CCCN(c2cccc(-c3ccc4cnc(CNC(=O)c5ccc6c(c5)S(=O)(=O)CCOC6)cc4n3)n2)C1 [Compound 622]
7 | – | – | – | 7.91 | – | 6.81 | 12.63 | CN(C)c1cccc(-c2ccc3cnc(CNC(=O)c4ccc5c(c4)S(=O)(=O)CCOC5)cc3n2)n1 [Compound 303]
8 | – | – | – | 7.48 | – | 6.42 | 11.49 | C[C@H]1CN(c2cccc(-c3ccc4cnc(CNC(=O)c5ccc(Cl)c(S(C)(=O)=O)c5)cc4n3)n2)C[C@H](C)O1 [Compound 179]
9 | – | – | – | 6.98 | 6.21 | 6.19 | – | CN(C)c1nccc2c1CCCN2c1ccc2cnc(CNC(=O)c3ccc4c(c3)S(=O)(=O)CCOC4)cc2n1 [Compound 836]
10 | – | – | – | 6.15 | 3.64 | 5.59 | – | O=C(NCc1cc2nc(-c3ccc(OC4CC4)cn3)ccc2cn1)c1ccc2c(c1)S(=O)(=O)CCOC2 [Compound 851]
11 | – | – | – | 7.88 | 11.63 | 6.82 | – | O=C(NCc1cc2nc(N3CCOc4c3ncc(C3CC3)c4F)ccc2cn1)c1ccc2c(c1)S(=O)(=O)CCOC2 [Compound 827]
12 | – | – | – | 6.45 | – | 5.87 | 3.75 | CC(=O)N1CCOc2c(-c3ccc4cnc(CNC(=O)c5ccc6c(c5)S(=O)(=O)CCOC6)cc4n3)cccc21 [Compound 185]
13 | 8.07 | 9.64 | 7.08 | – | – | – | – | Cc1cnc2c(c1)OCCN2c1ccc2cnc(CNC(=O)c3cc(F)c4c(c3)S(=O)(=O)[C@@H](C)COC4)cc2n1 [Compound 554]
14 | – | – | – | 8.06 | 13.42 | 6.93 | – | O=C(NCc1cc2nc(N3CCCc4ccc(OCC5CCCO5)cc43)ccc2cn1)c1ccc2c(c1)S(=O)(=O)CCOC2 (stereo not drawn) [Compound 747]
15 | 7.97 | 16.33 | 6.76 | – | – | – | – | C[C@@H]1CN(c2cccc(-c3ccc4cnc([C@H](C)NC(=O)c5ccc6c(c5)S(=O)(=O)[C@@H](C)COC6)cc4n3)n2)C[C@H](C)O1 [Compound 325]

Further lines, the molecule ahead of its results:

Row | Compound | pIC50 [1, 3] | Ratio* ([1]; ratio of BRG1 IC50 to BRM IC50) | pIC50 [2, 3] | pIC50 ([1]; ADP-Glo ATPase assay) | Ratio* ([1]; ratio BRG1 IC50 / BRM IC50) | pIC50 ([2]; ADP-Glo ATPase assay) | Ratio* (BRG1 IC50 (μM) divided by BRM IC50 (μM)) [1]
16 | CC1CN(c2ccc3cnc(CNC(=O)c4ccc5c(c4)S(=O)(=O)CCOC5)cc3n2)c2ncccc2N1C (stereo not drawn) [Compound 649] | 6.90 | 5.93 | 6.12 | – | – | – | –
17 | C[C@H]1CCc2ccc(-c3ccc4cnc(CNC(=O)c5ccc6c(c5)S(=O)(=O)CCOC6)cc4n3)nc2N1C [Compound 468] | 7.60 | 7.67 | 6.72 | – | – | – | –
18 | COC[C@@H]1CCc2ccc(-c3ccc4cnc(CNC(=O)c5ccc6c(c5)S(=O)(=O)CCOC6)cc4n3)nc2N1C [Compound 476] | 8.43 | 9.82 | 7.44 | – | – | – | –
19 | CN1CC[C@H](Oc2cccc(-c3ccc4cnc(CNC(=O)c5ccc6c(c5)S(=O)(=O)CCOC6)cc4n3)n2)C1 [Compound 342] | 6.55 | 15.24 | 5.36 | – | – | – | –
20 | O=C(NCc1cc2nc(-c3cccc(N4CCCOCC4)n3)ccc2cn1)c1ccc2c(c1)S(=O)(=O)CCOC2 [Compound 78] | – | – | – | 7.72 | – | 6.70 | 10.42
21 | COc1cc(Cl)ccc1-c1ccc2cnc(CNC(=O)c3ccc4c(c3)S(=O)(=O)[C@@H](C)COC4)cc2n1 [Compound 386] | 8.04 | 15.24 | 6.85 | – | – | – | –
22 | COc1nc(C(F)F)ccc1-c1ccc2cnc(CNC(=O)c3ccc4c(c3)S(=O)(=O)[C@@H](C)COC4)cc2n1 [Compound 405] | 7.96 | 17.27 | 6.72 | – | – | – | –
23 | COc1ccc2c(c1)N(c1ccc3cnc(CNC(=O)c4ccc5c(c4)S(=O)(=O)CCOC5)cc3n1)CCC2 [Compound 539] | 7.91 | 12.53 | 6.81 | – | – | – | –
24 | CS(=O)(=O)c1cc(C(=O)NCc2cc3nc(-c4cccc(N5CC[C@H]6COC[C@H]6C5)n4)ccc3cn2)ccc1Cl [Compound 76] | – | – | – | 7.34 | – | 6.17 | 14.90
25 | COCc1cc2c(c(F)c1Cl)N(c1ccc3cnc(CNC(=O)c4ccc5c(c4)S(=O)(=O)CCOC5)cc3n1)CCO2 [Compound 794] | – | – | – | 8.18 | 4.60 | 7.52 | –
26 | COCCN1CCCOc2c(-c3ccc4cnc(CNC(=O)c5ccc6c(c5)S(=O)(=O)CCOC6)cc4n3)cccc21 [Compound 313] | 6.98 | 3.69 | 6.41 | – | – | – | –
27 | O=C(NCc1cc2nc(N3CCCc4ccc(C5CCCO5)nc43)ccc2cn1)c1ccc2c(c1)S(=O)(=O)CCOC2 (stereo not drawn) [Compound 659] | 7.37 | 24.28 | 5.98 | – | – | – | –
28 | C[C@@H]1CN(c2cccc(-c3ccc4cnc(CNC(=O)c5ccc6c(c5)S(=O)(=O)CC[C@@H](C(F)F)O6)cc4n3)n2)C[C@H](C)O1 [Compound 581] | 6.81 | 15.23 | 5.63 | – | – | – | –
29 | O=C(NCc1cc2nc(N3CCOc4cc(N5CCC5)ncc43)ccc2cn1)c1ccc2c(c1)S(=O)(=O)CCOC2 [Compound 834] | – | – | – | 7.69 | 14.40 | 6.54 | –
30 | C[C@@H]1CN(c2cccc(-c3ccc4cnc(CNC(=O)c5ccc6c(c5)S(=O)(=O)[C@H](C)CC6)cc4n3)n2)C[C@H](C)O1 [Compound 362] | 7.77 | 14.06 | 6.62 | – | – | – | –
31 | C[C@@H]1CN(c2cccc(-c3ccc4cnc(CNC(=O)c5ccc(CC(C)(F)F)c(S(C)(=O)=O)c5)cc4n3)n2)C[C@H](C)O1 [Compound 474] | 6.64 | 20.44 | 5.33 | – | – | – | –
32 | CC(F)(F)c1ccc2c(n1)N(c1ccc3cnc(CNC(=O)c4ccc5c(c4)S(=O)(=O)CCOC5)cc3n1)CCO2 [Compound 617] | 7.04 | 28.12 | 5.59 | – | – | – | –
33 | CC1CN(c2cccc(-c3ccc4cnc(CNC(=O)c5cnc6c(c5)S(=O)(=O)C(C)CC6)cc4n3)n2)CC(C)O1 (stereo not drawn) [Compound 597] | 7.38 | 11.61 | 6.32 | – | – | – | –
34 | CN(CCC(F)F)c1cccc(-c2ccc3cnc(CNC(=O)c4ccc5c(c4)S(=O)(=O)CCOC5)cc3n2)n1 [Compound 460] | 7.62 | 9.71 | 6.63 | – | – | – | –
